The text below walks through data of US7410980B2, “Crystals of taxane derivative and process for their production” (Daiichi Pharmaceutical Co., Ltd., priority 2001, dated 2008).

This data set in a line: moisture absorption behavior (microbalance, automatic moisture adsorption apparatus). It counts as physicochemical. As for the experimental part: Moisture absorption behaviors of the crystals of the present invention (β crystals) and an amorphous substance were measured under relative humidity of from 30 to 90%. Each sample of about 20 mg was used and the relative humidity was changed from 30% with 10% pitch by using a microbalance (automatic moisture adsorption apparatus). The measurement temperature was 25° C. An amount of the change was determined when the sample gave the change of 0.03% or less for 30 minutes (maximum retention time: 180 minutes).

Regarding `CC(=O)O[C@@]12CO[C@@H]1CC[C@@]1(C)[C@@H]3O[C@H](CN(C)C)O[C@@H]3C3=C(C)[C@@H](OC(=O)[C@H](O)[C@@H](NC(=O)OC(C)(C)C)c4ncccc4F)C[C@@](O)([C@@H](OC(=O)c4ccccc4)[C@@H]12)C3(C)C` [amorphous substance, (1S,2S,3R,4S,5R,8R,9S,10R,13S)-4-acetoxy-2-benzoyloxy-9,10-[(1S)-2-(dimethylamino)ethylidenedioxy]-5,20-epoxy-1-hydroxytax-11-en-13-yl (2R,3S)-3-(tert-butoxycarbonylamino)-3-(3-fluoro-2-pyridyl)-2-hydroxypropionate], the “additional moisture absorbed as compared to the crystals of the present invention (β crystals)” value (under high humidity, relative humidity 30 to 90%, 25° C., about 20 mg sample) was “about 1%”.

As for `CC(=O)O[C@@]12CO[C@@H]1CC[C@@]1(C)[C@@H]3O[C@H](CN(C)C)O[C@@H]3C3=C(C)[C@@H](OC(=O)[C@H](O)[C@@H](NC(=O)OC(C)(C)C)c4ncccc4F)C[C@@](O)([C@@H](OC(=O)c4ccccc4)[C@@H]12)C3(C)C` [β crystals, (1S,2S,3R,4S,5R,8R,9S,10R,13S)-4-acetoxy-2-benzoyloxy-9,10-[(1S)-2-(dimethylamino)ethylidenedioxy]-5,20-epoxy-1-hydroxytax-11-en-13-yl (2R,3S)-3-(tert-butoxycarbonylamino)-3-(3-fluoro-2-pyridyl)-2-hydroxypropionate], for the setting “compared with amorphous substance, as shown in the examples”, the hygroscopicity result was “lower than that of an amorphous substance”.
